Experimental data published in patent US20240327415A1, “Multicomponent Complexes, Including Salts, Crystalline Forms, and Hydrates and Solvates of ENT1 Inhibitors” (iTeos Belgium SA, priority 2023, published 2024).

How the values were obtained:
[1] = hydration mapping studies (slurries at different water activities, Example 17); type: physicochemical
Protocol: Example 17—Hydration Mapping Studies-Crystalline Form 2 Compound 1 di(hydrogen sulfate) trihydrate, Crystalline Form 3 Compound 1 di(hydrogen sulfate), and Blend: The effects of different water activities on crystalline Form 2 Compound 1 di(hydrogen sulfate) trihydrate, crystalline Form 3 Compound 1 di(hydrogen sulfate) and a blend of the two were investigated. The “blend” was prepared by mixing crystalline Form 2 Compound 1 di(hydrogen sulfate) trihydrate and crystalline Form 3 Compound 1 di(hydrogen sulfate) in a 1:1 ratio. To the vials containing the required solid material, the appropriate solvent system was added to form slurries. The slurry samples were stirred at the required temperatures during and after the solvent addition. Where dissolution was observed post-solvent addition, additional solid was added to re-saturate the sample. After stirring at the required temperature for 48 hours, the residual solids left in the vials were analyzed by XRPD to assess the solid forms. The analyzed samples were then dried on the XRPD plate under reduced pressure at 40° C. for 24 hr. The dried samples were analyzed by XRPD.

[2] = Variable Temperature X-Ray Powder Diffraction (VT-XRPD); type: physicochemical; set-up: key: M4: Crystalline Form 4 mono(hydrogen sulfate); M8: Crystalline Form 8 mono(hydrogen sulfate); Amorphous mono(hydrogen sulfate)
Protocol: In the examples below, VT-XRPD analysis was carried out on a Philips X'Pert Pro Multipurpose diffractometer equipped with a temperature chamber. The samples were scanned between 4 and 36° 2θ using Cu K radiation (α1 λ=1.54060 Å; α2=1.54443 Å; β=1.39225 Å; α1: α2 ratio=0.5; most, if not all, B radiation is removed from the beam using an X-ray mirror) running in Bragg-Brentano geometry (step size 0.008° 2θ) using 40 kV/40 mA generator settings. Measurements were carried out from ambient temperature to an upper limit of 250° C., with a final measurement taken after cooling.
VT-XRPD analysis was carried out on a Philips X'Pert Pro Multipurpose diffractometer equipped with a temperature chamber. The samples were scanned between 4 and 36° 2θ using Cu K radiation (α1 λ=1.54060 Å; α2=1.54443 Å; β2=1.39225 Å; α1:α2 ratio=0.5; most, if not all, β radiation is removed from the beam using an X-ray mirror) running in Bragg-Brentano geometry (step size 0.008° 2θ) using 40 kV/40 mA generator settings. Measurements were carried out from ambient temperature to an upper limit of 250° C., with a final measurement taken after cooling.

In the case of `CCCN1CCNCCCNC(=O)c2cc(OC)c(OC)c(c2)OCCC[C@@H](OC(=O)c2cc(OC)c(OC)c(OC)c2)CC1`, the “solid form by XRPD after slurrying” value ([1]; acetonitrile:water (aw=0.1) at 50° C., 48 hours) is reported as “conversion to crystalline Form 6 Compound 1 di(hydrogen sulfate)” and the “solid form by XRPD after slurrying” value ([1]; the rest of the samples, 48 hours) is reported as “consistent with crystalline Form 2 Compound 1 di(hydrogen sulfate) trihydrate”.

With `COc1cc(C(=O)O[C@@H]2CCCOc3cc(cc(OC)c3OC)C(=O)NCCCN3CCCN(CC2)CC3)cc(OC)c1OC.O=S(=O)(O)O` the “VT-XRPD Results” value ([2]; Cooling, 30° C., hold 10 min) was “M8”, the “VT-XRPD Results” value ([2]; Heating, 40° C., hold 60 min) was “M8” and the “VT-XRPD Results” value ([2]; Heating, 50° C., hold 60 min) was “M8”. The “VT-XRPD Results” value ([2]; Heating, 70° C., hold 60 min) was “M8”, the “VT-XRPD Results” value ([2]; second Heating, 50° C., hold 60 min) was “M8” and the “VT-XRPD Results” value ([2]; second Heating, 70° C., hold 60 min) was “M8”. For the same molecule, the “VT-XRPD Results” value ([2]; second Heating, 90° C., hold 60 min) was “Amorphous”, the “VT-XRPD Results” value ([2]; second Heating, 100° C., hold 60 min) was “Amorphous” and the “VT-XRPD Results” value ([2]; second Heating, 110° C., hold 60 min) was “Amorphous”.

For `COc1cc(C(=O)O[C@@H]2CCCOc3cc(cc(OC)c3OC)C(=O)NCCCN3CCCN(CC2)CC3)cc(OC)c1OC.O=S(=O)(O)O.O=S(=O)(O)O` [crystalline Form 3 Compound 1 di(hydrogen sulfate)], the “solid form by XRPD after slurrying” value ([1]; solvent systems with aw=0.1, 48 hours) was “retained” and the “solid form by XRPD after slurrying” value ([1]; solvent systems with aw=0.9, 48 hours) was “Conversion to crystalline Form 2 Compound 1 di(hydrogen sulfate) trihydrate”.
